Reference: ChEMBL document CHEMBL5331051, “Cationic, amphipathic small molecules based on a triazine-piperazine-triazine scaffold as a new class of antimicrobial agents” (Eur J Med Chem, 2022)
Values after ≈ are worked out from the molar mass of the structure shown. Active and inactive are the calls of the source. The calls are words filed in the database; no cut-off is given here.

Legend:
[1] = test system: Pseudomonas aeruginosa; assay: Antibacterial activity against multidrug-resistant Pseudomonas aeruginosa CCARM 2095 strain assessed as bacterial growth inhibition measured at 18 to 24 hrs by microdilution assay; type: functional; details: time 18-24 hrs
[2] = test system: RAW264.7; assay: Antiinflammatory activity in LPS-induced mouse RAW264.7 cells assessed as reduction in TNF alpha level at 20 ug/ml measured after 72 hrs by ELISA assay relative to control; type: functional
[3] = test system: Pseudomonas aeruginosa; assay: Antibacterial activity against Pseudomonas aeruginosa KCTC 1637 strain assessed as bacterial growth inhibition measured at 18 to 24 hrs by microdilution assay; type: functional; details: time 18-24 hrs
[4] = test system: Staphylococcus aureus; assay: Antibacterial activity against Staphylococcus aureus KCTC 1621 strain assessed as bacterial growth inhibition measured at 18 to 24 hrs in presence of 150 mM NaCl by microdilution assay; type: functional; details: time 18-24 hrs
[5] = test system: Enterococcus faecium; assay: Antibacterial activity against vancomycin-resistant Enterococcus faecium ATCC 51559 strain assessed as bacterial growth inhibition measured at 18 to 24 hrs by microdilution assay; type: functional; details: time 18-24 hrs
[6] = test system: Staphylococcus aureus; assay: Additive antibacterial activity against multidrug-resistant Staphylococcus aureus CCARM 3089 strain assessed as fractional inhibitory concentration index in presence of chloramphenicol by checkerboard assay; type: functional
[7] = test system: Staphylococcus aureus; assay: Synergistic antibacterial activity against methicillin-resistant Staphylococcus aureus CCARM 3089 strain assessed as fractional inhibitory concentration in presence of oxacillin by checkerboard assay; type: functional
[8] = test system: Staphylococcus aureus; assay: Additive antibacterial activity against methicillin-resistant Staphylococcus aureus CCARM 3089 strain assessed as bacterial growth inhibition in presence of chloramphenicol by checkerboard assay; type: functional
[9] = test system: Staphylococcus aureus; assay: Additive antibacterial activity against multidrug-resistant Staphylococcus aureus CCARM 3089 strain assessed as oxacillin fractional inhibitory concentration by checkerboard assay; type: functional
[10] = test system: Staphylococcus aureus; assay: Additive antibacterial activity against multidrug-resistant Staphylococcus aureus CCARM 3089 strain assessed as fractional inhibitory concentration index in presence of oxacillin by checkerboard assay; type: functional
[11] = test system: Staphylococcus aureus; assay: Antibacterial activity against Staphylococcus aureus KCTC 1621 strain assessed as bacterial growth inhibition measured at 18 to 24 hrs in presence of 20% human serum by microdilution assay; type: functional; details: time 18-24 hrs
[12] = test system: RAW264.7; assay: Antiinflammatory activity in LPS-induced mouse RAW264.7 cells assessed as reduction in NO production at 5 ug/ml measured after 72 hrs by ELISA assay relative to control; type: functional
[13] = test system: Staphylococcus epidermidis; assay: Antibacterial activity against Staphylococcus epidermidis KCTC 1917 strain assessed as bacterial growth inhibition measured at 18 to 24 hrs by microdilution assay; type: functional; details: time 18-24 hrs
[14] = test system: Pseudomonas aeruginosa; assay: Synergistic antibacterial activity against multidrug-resistant Pseudomonas aeruginosa CCARM 2095 strain assessed as bacterial growth inhibition in presence of ciprofloxacin by checkerboard assay; type: functional
[15] = test system: Cell membrane; assay: Induction of cell membrane depolarization in Staphylococcus aureus assessed as increase in fluorescence intensity at 2 times MIC by SYTOX green staining based analysis
[16] = test system: Lipopolysaccharide (LPS); assay: Binding affinity to Escherichia coli O111:B4 lipopolysaccharide assessed as suppression of FTIC labeled LPS binding to mouse RAW264.7 cells at 20 ug/ml pretreated with LPS followed by compound addition by flow cytometer assay (reference value: 67.4%); type: cell-based; details: dose 20.0 µg/ml
[17] = test system: Staphylococcus aureus; assay: Synergistic antibacterial activity against multidrug-resistant Staphylococcus aureus CCARM 3089 strain assessed as fractional inhibitory concentration index in presence of oxacillin by checkerboard assay; type: functional
[18] = test system: Pseudomonas aeruginosa; assay: Synergistic antibacterial activity against multidrug-resistant Pseudomonas aeruginosa CCARM 2095 strain assessed as ciprofloxacin MIC by checkerboard assay; type: functional
[19] = test system: Escherichia coli; assay: Antibacterial activity against Escherichia coli KCTC 1682 strain assessed as bacterial growth inhibition measured at 18 to 24 hrs in presence of 6 uM NH4Cl by microdilution assay; type: functional; details: time 18-24 hrs
[20] = test system: Escherichia coli; assay: Antibacterial activity against Escherichia coli KCTC 1682 strain assessed as bacterial growth inhibition measured at 18 to 24 hrs in presence of 1 mM MgCl2 by microdilution assay; type: functional; details: time 18-24 hrs
[21] = test system: Staphylococcus aureus; assay: Antibacterial activity against Staphylococcus aureus KCTC 1621 strain assessed as bacterial growth inhibition measured at 18 to 24 hrs in presence of 4 uM FeCl3 by microdilution assay; type: functional; details: time 18-24 hrs
[22] = test system: Staphylococcus aureus; assay: Antibacterial activity against Staphylococcus aureus KCTC 1621 strain assessed as bacterial growth inhibition measured at 18 to 24 hrs in presence of 1 mM MgCl2 by microdilution assay; type: functional; details: time 18-24 hrs
[23] = test system: Staphylococcus aureus; assay: Antibacterial activity against Staphylococcus aureus KCTC 1621 strain assessed as bacterial growth inhibition measured at 18 to 24 hrs by microdilution assay; type: functional; details: time 18-24 hrs
[24] = test system: Pseudomonas aeruginosa; assay: Antibiofilm activity against multidrug-resistant Pseudomonas aeruginosa assessed as inhibition of biofilm formation; type: functional
[25] = test system: Escherichia coli; assay: Antibacterial activity against Escherichia coli KCTC 1682 strain assessed as bacterial growth inhibition measured after 6 hrs in presence of pepsin by radial diffusion assay; type: functional, organism-based
[26] = test system: Pseudomonas aeruginosa; assay: Synergistic antibacterial activity against multidrug-resistant Pseudomonas aeruginosa CCARM 2095 strain assessed as ciprofloxacin fractional inhibitory concentration by checkerboard assay; type: functional
[27] = test system: Staphylococcus aureus; assay: Synergistic antibacterial activity against methicillin-resistant Staphylococcus aureus CCARM 3089 strain assessed as oxacillin MIC by checkerboard assay; type: functional
[28] = test system: Staphylococcus aureus; assay: Antibacterial activity against Staphylococcus aureus KCTC 1621 strain assessed as bacterial growth inhibition measured at 18 to 24 hrs in presence of 6 uM NH4Cl by microdilution assay; type: functional; details: time 18-24 hrs
[29] = test system: Cell membrane; assay: Induction of cell membrane depolarization in Staphylococcus aureus assessed as fluorescence intensity at 2 to 16 times MIC by DiSC3(5) dye based fluorescence assay; type: subcellular
[30] = test system: Pseudomonas aeruginosa; assay: Synergistic antibacterial activity against multidrug-resistant Pseudomonas aeruginosa CCARM 2095 strain assessed as bacterial growth inhibition by checkerboard assay; type: functional
[31] = test system: Staphylococcus aureus; assay: Synergistic antibacterial activity against multidrug-resistant Staphylococcus aureus CCARM 3089 strain assessed as ciprofloxacin fractional inhibitory concentration by checkerboard assay; type: functional
[32] = test system: Pseudomonas aeruginosa; assay: Synergistic antibacterial activity against multidrug-resistant Pseudomonas aeruginosa CCARM 2095 strain assessed as bacterial growth inhibition in presence of chloramphenicol by checkerboard assay; type: functional
[33] = test system: Pseudomonas aeruginosa; assay: Synergistic antibacterial activity against multidrug-resistant Pseudomonas aeruginosa CCARM 2095 strain assessed as chloramphenicol MIC by checkerboard assay; type: functional
[34] = test system: Pseudomonas aeruginosa; assay: Synergistic antibacterial activity against multidrug-resistant Pseudomonas aeruginosa CCARM 2095 strain assessed as oxacillin MIC by checkerboard assay; type: functional
[35] = test system: Pseudomonas aeruginosa; assay: Synergistic antibacterial activity against multidrug-resistant Pseudomonas aeruginosa CCARM 2095 strain assessed as chloramphenicol fractional inhibitory concentration by checkerboard assay; type: functional
[36] = test system: Staphylococcus aureus; assay: Additive antibacterial activity against multidrug-resistant Staphylococcus aureus CCARM 3089 strain assessed as ciprofloxacin fractional inhibitory concentration by checkerboard assay; type: functional
[37] = test system: Staphylococcus aureus; assay: Synergistic antibacterial activity against methicillin-resistant Staphylococcus aureus CCARM 3089 strain assessed as ciprofloxacin MIC by checkerboard assay; type: functional
[38] = test system: Pseudomonas aeruginosa; assay: Synergistic antibacterial activity against multidrug-resistant Pseudomonas aeruginosa CCARM 2095 strain assessed as oxacillin fractional inhibitory concentration in presence of oxacillin by checkerboard assay; type: functional

With NCCNc1nc(NCCN)nc(N2CC(Cc3ccccc3)N(c3nc(NCCN)nc(NCCN)n3)CC2Cc2ccccc2)n1 (centres undefined) the MIC [1] was 24.3 µM (≈ 16 µg/mL), the inhibition at 20 µg/mL [2] was 72.4% and the MIC [3] was 6.1 µM (≈ 4.01 µg/mL). The MIC [4] was 6.1 µM, the MIC [5] was 24.3 µM (≈ 16 µg/mL) and the “fractional inhibitory concentration index (FICI)” value [6] was 0.75. It also gave an FIC [7] of 0.25, an MIC [8] of 16 µg/mL and an FIC [9] of 0.25. For the same molecule, the “fractional inhibitory concentration index (FICI)” value [10] was 0.5, the MIC [11] was 12.2 µM and the inhibition at 5 µg/mL [12] was 31.5%. The MIC [13] was 6.1 µM (≈ 4.01 µg/mL), the MIC [14] was 4 µg/mL and the Activity [15] was “inactive”. The Flu intensity [16] was 21.4%, the “fractional inhibitory concentration index (FICI)” value [17] was 0.5 and the MIC [18] was 256 µg/mL. The MIC [19] was 6.1 µM, the MIC [20] was 6.1 µM and the MIC [21] was 6.1 µM. It also gave an MIC [22] of 6.1 µM, an MIC [23] of 6.1 µM (≈ 4.01 µg/mL) and an MBEC50 [24] of 24.3 µM. The MBEC90 [24] was 97.3 µM, the MBIC [24] was 24.3 µM and the MBIC50 [24] was 3 µM. The Activity [25] was “Active”, the FIC [26] was 0.25 and the MIC [27] was 256 µg/mL. The MIC [28] was 6.1 µM and the Activity [29] was “inactive”.

Work on NCCCCNc1nc(NCCCCN)nc(N2CC(Cc3ccccc3)N(c3nc(NCCCCN)nc(NCCCCN)n3)CC2Cc2ccccc2)n1 (centres undefined) yielded an MIC [30] of 32 µg/mL, an MIC [1] of 41.6 µM (≈ 32 µg/mL) and an inhibition at 20 µg/mL [2] of 97.2%. It also gave an MIC [3] of 5.2 µM (≈ 4 µg/mL), an MIC [4] of 5.2 µM and an MIC [5] of 41.6 µM (≈ 32 µg/mL). It also gave an FIC [31] of 0.125, an MIC [32] of 8 µg/mL and an MIC [33] of 128 µg/mL. For the same molecule, the MIC [34] was 256 µg/mL, the “fractional inhibitory concentration index (FICI)” value [6] was 0.625 and the FIC [7] was 0.25. The MIC [8] was 2 µg/mL, the FIC [9] was 0.25 and the “fractional inhibitory concentration index (FICI)” value [10] was 0.5. The FIC [35] was 0.125, the MIC [11] was 10.4 µM and the inhibition at 5 µg/mL [12] was 72.6%. For the same molecule, the MIC [13] was 5.2 µM (≈ 4 µg/mL), the MIC [14] was 8 µg/mL and the Activity [15] was “inactive”. For the same molecule, the Flu intensity [16] was 19.5%, the “fractional inhibitory concentration index (FICI)” value [17] was 0.5 and the MIC [18] was 128 µg/mL. It also gave an MIC [19] of 10.4 µM, an MIC [20] of 10.4 µM and an MIC [21] of 20.8 µM. For the same molecule, the FIC [36] was 0.125, the MIC [22] was 5.2 µM and the MIC [23] was 5.2 µM (≈ 4 µg/mL). The Activity [25] was “Active”, the FIC [26] was 0.125 and the MIC [37] was 64 µg/mL. The MIC [27] was 256 µg/mL, the MIC [28] was 5.2 µM and the Activity [29] was “inactive”. The FIC [38] was 0.25.
